Patent US20230081426A1, “COMPOUNDS AND METHODS FOR KRAS MODULATION AND INDICATIONS THEREFOR” (Plexxikon Inc., priority 2020, published 2023)

How the values were obtained:
[1] = target: T1, G12D-mutant human KRAS (amino acid residues 1-188) (Homo sapiens, UniProt P01116, G12D); assay: KRAS Binding Disruption Assay (AlphaScreen; biotinylated KRpep-2d analogue or RAF1-RBD), G12D; details: KRAS G12D; geometric mean; read-out: KRAS GMean IC50 (uM) MUTATION: G12D
T1 construct: G12D or G12C-mutant human KRAS (amino acid residues 1-188) with FLAG tag; made in house; host or cells: E. coli
In short: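 Mutant KRAS (5-20 nM) incubated 1 h at 25° C with test compound and 5-20 nM biotinylated KRpep-2d analogue or RAF1-RBD in 20 mM HEPES pH 7.5, 100 mM NaCl, 5 mM MgCl2, 0.01% Tween-20, 0.01% BSA.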

[2] = target: T2, G12V-mutant human KRAS (amino acid residues 1-188) (Homo sapiens, UniProt P01116, G12V); assay: KRAS Binding Competition Assay (AlphaScreen; biotinylated KRpep-2d analogue), G12V; details: geometric mean, read-out: KRAS GMean IC50 (uM) MUTATION: G12V
T2 construct: G12V-mutant human KRAS (amino acid residues 1-188) with FLAG tag was purified from E. coli; made in house; host or cells: E. coli
Description: Compound binding disrupts the interaction of KRpep-2d with KRAS, leading to a decrease in Alpha signal.
All assay components were prepared in 20 mM HEPES (pH 7.5), 100 mM NaCl, 5 mM MgCl2, 0.01% Tween-20, and 0.01% BSA. Biotinylated analogues of KRpep-2d were custom synthesized. The binding competition assays were performed using 10 nM of mutant KRAS and 10 nM of biotinylated KRpep-2d analogue. 19 μL of KRAS protein and 4 μL of biotinylated KRpep-2d were added to the wells of a 384-well plate containing 1 μL of various concentrations of test compound or DMSO vehicle. 16 wells containing KRAS, biotinylated KRpep-2d, and 5% DMSO served as high controls. 16 wells containing KRAS only and 5% DMSO served as low controls. Binding reactions were incubated for 1 hour at 25° C., then Anti-Flag Acceptor and Streptavidin Donor Alpha beads were added at a final concentration of 10 μg/mL for an additional hour at room temperature. Alpha signal was read out on a Perkin Elmer Envision HTS instrument. The percentage inhibition at individual compound concentrations relative to high and low controls was calculated. The data were analyzed by using nonlinear regression to generate IC50 values.

Compound	IC50 [1] [µM]	IC50 [2] [µM]
Cc1cccc2cccc(-c3ccc4c(N5CC6CCC(C5)N6C(=O)CC#N)nc(OC[C@@H]5CCCN5C)nc4c3F)c12 (racemic) [P-0019, 3-((1R,5S)-3-(8-fluoro-7-(8-methylnaphthalen-1-yl)-2-(((RS)-1-methylpyrrolidin-2-yl)methoxy)quinazolin-4-yl)-3,8-diazabicyclo[3.2.1]octan-8-yl)-3-oxopropanenitrile]	10 to 100	10 to 100
CN1CCC[C@H]1COc1nc(N2CC3COCC(C2)N3C(=O)NC2CCOC2)c2ccc(-c3cc(O)cc4ccccc34)c(F)c2n1 (mixture of isomers) [P-0251, rac-7-(8-fluoro-7-(3-hydroxynaphthalen-1-yl)-2-(((R)-1-methylpyrrolidin-2-yl)methoxy)quinazolin-4-yl)-N-(tetrahydrofuran-3-yl)-3-oxa-7,9-diazabicyclo[3.3.1]nonane-9-carboxamide]	0.0001 to 10	0.0001 to 10
CN1CCC[C@H]1COc1nc(N2CC3CCC(C2)N3)c2ccc(N3CC(O)Cc4ccccc43)cc2n1 (mixture of isomers) [P-0256, 1-(4-((1R,5S)-3,8-diazabicyclo[3.2.1]octan-3-yl)-2-(((RS)-1-methylpyrrolidin-2-yl)methoxy)quinazolin-7-yl)-1,2,3,4-tetrahydroquinolin-3-ol]	10 to 100	10 to 100
CN1CCC[C@H]1COc1nc(N2CC3CCC(C2)N3C(=O)CCCN2CCOCC2)c2ccc(-c3cc(O)cc4ccccc34)c(F)c2n1 (racemic) [P-0429, 1-((1R,5S)-3-(8-fluoro-7-(3-hydroxynaphthalen-1-yl)-2-(((RS)-1-methylpyrrolidin-2-yl)methoxy)quinazolin-4-yl)-3,8-diazabicyclo[3.2.1]octan-8-yl)-4-morpholinobutan-1-one]	0.0001 to 10	10 to 100
Oc1cc(-c2ccc3c(N4C[C@H]5CC[C@@H](C4)N5)nc(OCC45CCCN4CCC5)nc3c2Cl)c2ccccc2c1 [P-0003, 4-(4-((1R,5S)-3,8-diazabicyclo[3.2.1]octan-3-yl)-8-chloro-2-((tetrahydro-1H-pyrrolizin-7a(5H)-yl)methoxy)quinazolin-7-yl)naphthalen-2-ol]	0.0001 to 10	0.0001 to 10
OCC1(CNc2nc(N3C[C@H]4CC[C@@H](C3)N4)c3ccc(-c4cc(O)cc5ccccc45)c(F)c3n2)CCC1 [P-0587, 4-(4-((1R,5S)-3,8-diazabicyclo[3.2.1]octan-3-yl)-8-fluoro-2-(((1-(hydroxymethyl)cyclobutyl)methyl)amino)quinazolin-7-yl)naphthalen-2-ol]	0.0001 to 10	
OCC1(COc2nc(N3C[C@H]4CC[C@@H](C3)N4)c3ccc(-c4cc(O)cc5ccccc45)c(F)c3n2)CCCC1 [P-0588, 4-(4-((1R,5S)-3,8-diazabicyclo[3.2.1]octan-3-yl)-8-fluoro-2-((1-(hydroxymethyl)cyclopentyl)methoxy)quinazolin-7-yl)naphthalen-2-ol]	0.0001 to 10	
CN(C)CC(C)(C)COc1nc(N2C[C@H]3CC[C@@H](C2)N3)c2ccc(-c3cc(O)cc4ccccc34)c(F)c2n1 [P-0589, 4-(4-((1R,5S)-3,8-diazabicyclo[3.2.1]octan-3-yl)-2-(3-(dimethylamino)-2,2-dimethylpropoxy)-8-fluoroquinazolin-7-yl)naphthalen-2-ol]	0.0001 to 10	
CC(C)(CNS(C)(=O)=O)COc1nc(N2C[C@H]3CC[C@@H](C2)N3)c2ccc(-c3cc(O)cc4ccccc34)c(F)c2n1 [P-0590, N-(3-((4-((1R,5S)-3,8-diazabicyclo[3.2.1]octan-3-yl)-8-fluoro-7-(3-hydroxynaphthalen-1-yl)quinazolin-2-yl)oxy)-2,2-dimethylpropyl)methanesulfonamide]	0.0001 to 10	
CC(=O)NCC(C)(C)COc1nc(N2C[C@H]3CC[C@@H](C2)N3)c2ccc(-c3cc(O)cc4ccccc34)c(F)c2n1 [P-0591, N-(3-((4-((1R,5S)-3,8-diazabicyclo[3.2.1]octan-3-yl)-8-fluoro-7-(3-hydroxynaphthalen-1-yl)quinazolin-2-yl)oxy)-2,2-dimethylpropyl)acetamide]	0.0001 to 10	
CC(C)(CNC(=O)OCc1ccccc1)COc1nc(N2C[C@H]3CC[C@@H](C2)N3)c2ccc(-c3cc(O)cc4ccccc34)c(F)c2n1 [P-0592, benzyl (3-((4-((1R,5S)-3,8-diazabicyclo[3.2.1]octan-3-yl)-8-fluoro-7-(3-hydroxynaphthalen-1-yl)quinazolin-2-yl)oxy)-2,2-dimethylpropyl)carbamate]	0.0001 to 10	
Cc1ccc2[nH]ncc2c1-c1c(F)cc2c(N3C[C@H]4CC[C@@H](C3)N4)nc(OCC34CCCN3CCC4)nc2c1F [P-0593, 4-((1R,5S)-3,8-diazabicyclo[3.2.1]octan-3-yl)-6,8-difluoro-7-(5-methyl-1H-indazol-4-yl)-2-((tetrahydro-1H-pyrrolizin-7a(5H)-yl)methoxy)quinazoline]	0.0001 to 10	
CC(=O)Nc1ccc(Cl)c(-c2c(F)cc3c(N4C[C@H]5CC[C@@H](C4)N5)nc(OCC45CCCN4CCC5)nc3c2F)c1 [P-0594, N-(3-(4-((1R,5S)-3,8-diazabicyclo[3.2.1]octan-3-yl)-6,8-difluoro-2-((tetrahydro-1H-pyrrolizin-7a(5H)-yl)methoxy)quinazolin-7-yl)-4-chlorophenyl)acetamide]	0.0001 to 10	
Nc1ccc(Cl)c(-c2c(F)cc3c(N4C[C@H]5CC[C@@H](C4)N5)nc(OCC45CCCN4CCC5)nc3c2F)c1 [P-0595, 3-(4-((1R,5S)-3,8-diazabicyclo[3.2.1]octan-3-yl)-6,8-difluoro-2-((tetrahydro-1H-pyrrolizin-7a(5H)-yl)methoxy)quinazolin-7-yl)-4-chloroaniline]	0.0001 to 10	
Cc1ccc(N)cc1-c1c(F)cc2c(N3C[C@H]4CC[C@@H](C3)N4)nc(OCC34CCCN3CCC4)nc2c1F [P-0596, 3-(4-((1R,5S)-3,8-diazabicyclo[3.2.1]octan-3-yl)-6,8-difluoro-2-((tetrahydro-1H-pyrrolizin-7a(5H)-yl)methoxy)quinazolin-7-yl)-4-methylaniline]	0.0001 to 10	
CCCc1cccc2[nH]cc(-c3ccc4c(N5C[C@H]6CC[C@@H](C5)N6)nc(OCC56CCCN5CCC6)nc4c3F)c12 [P-0598, 4-((1R,5S)-3,8-diazabicyclo[3.2.1]octan-3-yl)-8-fluoro-7-(4-propyl-1H-indol-3-yl)-2-((tetrahydro-1H-pyrrolizin-7a(5H)-yl)methoxy)quinazoline]	0.0001 to 10	
Oc1cc(-c2ccc3c(N4C[C@H]5CC[C@@H](C4)N5)nc(N4CC5(CCNC5)C4)nc3c2F)c2ccccc2c1 [P-0599]	0.0001 to 10	
Oc1cc(-c2ccc3c(N4C[C@H]5CC[C@@H](C4)N5)nc(N4CC5(CCCNC5)C4)nc3c2F)c2ccccc2c1 [P-0600, 4-(4-((1R,5S)-3,8-diazabicyclo[3.2.1]octan-3-yl)-8-fluoro-2-(2,6-diazaspiro[3.5]nonan-2-yl)quinazolin-7-yl)naphthalen-2-ol]	0.0001 to 10	
CNC1CN(c2nc(N3C[C@H]4CC[C@@H](C3)N4)c3ccc(-c4cc(O)cc5ccccc45)c(F)c3n2)C1 [P-0601, 4-(4-((1R,5S)-3,8-diazabicyclo[3.2.1]octan-3-yl)-8-fluoro-2-(3-(methylamino)azetidin-1-yl)quinazolin-7-yl)naphthalen-2-ol]	0.0001 to 10	
Oc1cc(-c2ccc3c(N4C[C@H]5CC[C@@H](C4)N5)nc(N4CC(N5CCC(O)C5)C4)nc3c2F)c2ccccc2c1 (stereo partly drawn) [P-0602, 1-(1-(4-((1R,5S)-3,8-diazabicyclo[3.2.1]octan-3-yl)-8-fluoro-7-(3-hydroxynaphthalen-1-yl)quinazolin-2-yl)azetidin-3-yl)pyrrolidin-3-ol]	0.0001 to 10	
Cc1nccc2[nH]cc(-c3ccc4c(N5C[C@H]6CC[C@@H](C5)N6)nc(OCC56CCCN5CCC6)nc4c3F)c12 [P-0605, 4-((1R,5S)-3,8-diazabicyclo[3.2.1]octan-3-yl)-8-fluoro-7-(4-methyl-1H-pyrrolo[3,2-c]pyridin-3-yl)-2-((tetrahydro-1H-pyrrolizin-7a(5H)-yl)methoxy)quinazoline]	10 to 100	
OCCCc1cccc2[nH]cc(-c3ccc4c(N5C[C@H]6CC[C@@H](C5)N6)nc(OCC56CCCN5CCC6)nc4c3F)c12 [P-0606, 3-(3-(4-((1R,5S)-3,8-diazabicyclo[3.2.1]octan-3-yl)-8-fluoro-2-((tetrahydro-1H-pyrrolizin-7a(5H)-yl)methoxy)quinazolin-7-yl)-1H-indol-4-yl)propan-1-ol]	0.0001 to 10	
Nc1ccc(F)c(-c2c(F)cc3c(N4C[C@H]5CC[C@@H](C4)N5)nc(OCC45CCCN4CCC5)nc3c2F)c1 [P-0608, 3-(4-((1R,5S)-3,8-diazabicyclo[3.2.1]octan-3-yl)-6,8-difluoro-2-((tetrahydro-1H-pyrrolizin-7a(5H)-yl)methoxy)quinazolin-7-yl)-4-fluoroaniline]	0.0001 to 10	
